Experimental data taken from patent US20170143701A1, “CARBOHYDRATE METABOLISM-AMELIORATING AGENT” (SUNTORY HOLDINGS LIMITED, priority 2014, published 2017).

Test system: C57/BL6J mice
Assay: In vivo plasma GLP-1 level-increasing action: plasma active GLP-1 level (ELISA) after oral administration
Details: 10 mg/kg oral; for Significant difference (p < 0.05) vs control group, plasma active GLP-1 level: 30 minutes, Student's t-test; for Plasma active GLP-1 level (relative value to control group as 100), average value: blood 30 minutes after, 0.5% CMC-Na group = 100
Description: Seven-week-old male C57/BL6J mice were purchased from CLEA Japan, Inc. for use, and they were subjected to an experiment after 1 week of a habituation period.
After the habituation period, the mice were subjected to 5.5 hours of food deprivation and 2 hours of water deprivation. Thereafter, a cyclic dipeptide dissolved or suspended in a 0.5% CMC-Na aqueous solution in 10 mg/kg was orally administered to each mouse forcibly. After 30 minutes, the blood was collected from the abdominal vena cava under anesthesia, and 1 μL of heparin sodium and 1 μL of 10 mM Sitagliptin phosphate were added to each collected blood, which was then subjected to centrifugation at 8000 rpm for 10 minutes to recover the plasma, and the plasma active GLP-1 level was measured by using the ELISA kit. In the analysis, the active GLP-1 level for a group administered with 0.5% CMC-Na aqueous solution was defined as 100, and relative values thereto were used.

Structure (SMILES): CCC(C)C1NC(=O)C(C(C)C)NC1=O (stereo not drawn) [compound 138, Cyclo(Ile-Val)]
- Significant difference (p < 0.05) vs control group, plasma active GLP-1 level (Table 14, Experiment 9): No
- Plasma active GLP-1 level (relative value to control group as 100), average value (Table 14, Experiment 9): 96

Structure (SMILES): CC(C)C1NC(=O)C(C(C)O)NC1=O (stereo not drawn) [compound 139, cyclo-valyl-threonine]
- Significant difference (p < 0.05) vs control group, plasma active GLP-1 level (Table 14, Experiment 9): Yes
- Plasma active GLP-1 level (relative value to control group as 100), average value (Table 14, Experiment 9): 120

Structure (SMILES): CC(C)C1NC(=O)C(CC(=O)O)NC1=O (stereo not drawn) [compound 140, cyclo-valyl-aspartic acid]
- Significant difference (p < 0.05) vs control group, plasma active GLP-1 level (Table 14, Experiment 9): Yes
- Plasma active GLP-1 level (relative value to control group as 100), average value (Table 14, Experiment 9): 120

Structure (SMILES): CC(C)[C@@H]1NC(=O)[C@H](CC(N)=O)NC1=O [compound 141, cyclo-asparaginyl-valine]
- Significant difference (p < 0.05) vs control group, plasma active GLP-1 level (Table 15, Experiment 10): Yes
- Plasma active GLP-1 level (relative value to control group as 100), average value (Table 15, Experiment 10): 191

Structure (SMILES): CC(C)CC1NC(=O)C(CCC(=O)O)NC1=O (stereo not drawn) [compound 145, cyclo-glutamyl-leucine]
- Significant difference (p < 0.05) vs control group, plasma active GLP-1 level (Table 15, Experiment 10): Yes
- Plasma active GLP-1 level (relative value to control group as 100), average value (Table 15, Experiment 10): 236

Structure (SMILES): CC(C)CC1NC(=O)C(CC(=O)O)NC1=O (stereo not drawn) [compound 146, cyclo-aspartyl-leucine]
- Significant difference (p < 0.05) vs control group, plasma active GLP-1 level (Table 15, Experiment 10): Yes
- Plasma active GLP-1 level (relative value to control group as 100), average value (Table 15, Experiment 10): 259

Structure (SMILES): CC[C@H](C)[C@@H]1NC(=O)[C@H](Cc2cnc[nH]2)NC1=O [compound 148, cyclo-isoleucyl-histidine]
- Significant difference (p < 0.05) vs control group, plasma active GLP-1 level (Table 15, Experiment 10): Yes
- Plasma active GLP-1 level (relative value to control group as 100), average value (Table 15, Experiment 10): 259

Structure (SMILES): CC[C@H](C)[C@@H]1NC(=O)[C@H](CCCCN)NC1=O [compound 150, cyclo-isoleucyl-lysine]
- Significant difference (p < 0.05) vs control group, plasma active GLP-1 level (Table 15, Experiment 10): Yes
- Plasma active GLP-1 level (relative value to control group as 100), average value (Table 15, Experiment 10): 282

Structure (SMILES): CC(C)CC1NC(=O)C(CO)NC1=O (stereo not drawn) [compound 151, cyclo-seryl-leucine]
- Significant difference (p < 0.05) vs control group, plasma active GLP-1 level (Table 15, Experiment 10): Yes
- Plasma active GLP-1 level (relative value to control group as 100), average value (Table 15, Experiment 10): 259

Structure (SMILES): CC(C)CC1NC(=O)C(CCC(N)=O)NC1=O (stereo not drawn) [compound 152, cyclo-glutaminyl-leucine]
- Significant difference (p < 0.05) vs control group, plasma active GLP-1 level (Table 15, Experiment 10): Yes
- Plasma active GLP-1 level (relative value to control group as 100), average value (Table 15, Experiment 10): 282

Structure (SMILES): CC(C)[C@@H]1NC(=O)CNC1=O [compound 155, Cyclo(Val-Gly)]
- Significant difference (p < 0.05) vs control group, plasma active GLP-1 level (Table 15, Experiment 10): No
- Plasma active GLP-1 level (relative value to control group as 100), average value (Table 15, Experiment 10): 55

Structure (SMILES): CCC(C)C1NC(=O)CNC1=O (stereo not drawn) [compound 156, Cyclo(Ile-Gly)]
- Significant difference (p < 0.05) vs control group, plasma active GLP-1 level (Table 15, Experiment 10): No
- Plasma active GLP-1 level (relative value to control group as 100), average value (Table 15, Experiment 10): 145

Structure (SMILES): CSCCC1NC(=O)C(C(C)C)NC1=O (stereo not drawn) [compound 160, cyclo-methionyl-valine]
- Significant difference (p < 0.05) vs control group, plasma active GLP-1 level (Table 15, Experiment 10): Yes
- Plasma active GLP-1 level (relative value to control group as 100), average value (Table 15, Experiment 10): 304

Structure (SMILES): CC[C@H](C)[C@@H]1NC(=O)[C@H]([C@H](C)O)NC1=O [compound 161, cyclo-isoleucyl-threonine]
- Significant difference (p < 0.05) vs control group, plasma active GLP-1 level (Table 15, Experiment 10): Yes
- Plasma active GLP-1 level (relative value to control group as 100), average value (Table 15, Experiment 10): 282

Structure (SMILES): CC[C@H](C)[C@@H]1NC(=O)[C@H](CC(=O)O)NC1=O [compound 162, cyclo-isoleucyl-aspartic acid]
- Significant difference (p < 0.05) vs control group, plasma active GLP-1 level (Table 15, Experiment 10): Yes
- Plasma active GLP-1 level (relative value to control group as 100), average value (Table 15, Experiment 10): 259

Structure (SMILES): CC[C@H](C)C1NC(=O)[C@H](CC(N)=O)NC1=O (stereo partly drawn) [compound 163, cyclo-asparaginyl-isoleucine]
- Significant difference (p < 0.05) vs control group, plasma active GLP-1 level (Table 15, Experiment 10): Yes
- Plasma active GLP-1 level (relative value to control group as 100), average value (Table 15, Experiment 10): 327

Structure (SMILES): CSCC[C@@H]1NC(=O)[C@H]([C@H](C)O)NC1=O [compound 169, cyclo-methionyl-threonine]
- Significant difference (p < 0.05) vs control group, plasma active GLP-1 level (Table 15, Experiment 10): Yes
- Plasma active GLP-1 level (relative value to control group as 100), average value (Table 15, Experiment 10): 282

Structure (SMILES): CC1NC(=O)C(CS)NC1=O (stereo not drawn) [compound 177, cyclo-alanyl-cysteine]
- Significant difference (p < 0.05) vs control group, plasma active GLP-1 level (Table 15, Experiment 10): Yes
- Plasma active GLP-1 level (relative value to control group as 100), average value (Table 15, Experiment 10): 282

Structure (SMILES): O=C1CNC(=O)C(CS)N1 (stereo not drawn) [compound 178, cyclo-glycyl-cysteine]
- Significant difference (p < 0.05) vs control group, plasma active GLP-1 level (Table 15, Experiment 10): Yes
- Plasma active GLP-1 level (relative value to control group as 100), average value (Table 15, Experiment 10): 282

Structure (SMILES): O=C(O)CCC1NC(=O)C(CS)NC1=O (stereo not drawn) [compound 179, cyclo-glutamyl-cysteine]
- Significant difference (p < 0.05) vs control group, plasma active GLP-1 level (Table 15, Experiment 10): Yes
- Plasma active GLP-1 level (relative value to control group as 100), average value (Table 15, Experiment 10): 304

Structure (SMILES): O=C1N[C@@H](CS)C(=O)N[C@H]1CO [compound 180, cyclo-seryl-cysteine]
- Significant difference (p < 0.05) vs control group, plasma active GLP-1 level (Table 15, Experiment 10): Yes
- Plasma active GLP-1 level (relative value to control group as 100), average value (Table 15, Experiment 10): 259
